Reference: publication PMC11994961, “In Vivo pharmacokinetic interactions of ribociclib with rivaroxaban and apixaban in rats: implications for increased drug exposure and dose adjustments” (Frontiers in Pharmacology, 2025)
Read-outs that look alike come from different tables or passages of the source.

Assays:
[1] = parameters: method as in Samant et al., 2020; settings: ref Samant et al., 2020, cited from earlier work
[2] = Pharmacokinetic study of rivaroxaban in rats, alone and with ribociclib (UPLC-MS/MS plasma levels); type: in vivo, Sprague-Dawley rats; settings: for CL/F: read-out: CLz/F (converted); for MRT inf: read-out: MRT0- ∞; for MRT last: read-out: MRT0-t; for Vd/F: read-out: Vz/F
Method: Experimental animals were randomly divided into nine groups (n = 6, Table 1). Ribociclib was suspended in methylcellulose (MC), rivaroxaban was prepared in hydroxypropyl methylcellulose (HPMC), and apixaban was suspended in 5% DMSO in water. To achieve steady-state blood concentrations, a drug typically requires five to seven half-lives. Based on this principle, ribociclib was administered orally for eight consecutive days, while rivaroxaban and apixaban were administered orally for five consecutive days to ensure steady-state concentrations were reached before further analysis.
Approximately 0.1 mL of blood was collected into heparinized tubes via the orbitalat specified time points before and after the final drug administration. For apixaban, blood samples were collected at 0, 0.083, 0.167, 0.25, 0.333, 0.5, 0.75, 1, 3, 5, 7, 10, and 12 h. For rivaroxaban, sampling was conducted at 0, 0.167, 0.333, 0.5, 0.75, 1.5, 2, 3, 4, 5, 6, 8, 10, 12, and 24 h. For ribociclib, samples were taken at 0, 0.5, 1, 2, 4, 5, 6, 8, 10, 12, 24, and 48 h. Blood samples were centrifuged at 3,500 rpm for 10 min, and the supernatant was collected and stored at −80°C until processing for UPLC-MS/MS.
Apixaban and rivaroxaban concentrations in plasma samples were determined using our previously established UPLC-MS/MS method ([Wang et al., 2023]). Ribociclib concentrations were quantified using an LC-30A UPLC system (Shimadzu, Kyoto, Japan) coupled with a Sciex Triple Quad 5500 tandem quadrupole mass spectrometer (AB Sciex, Framingham, MA, United States) equipped with an electrospray ionization interface. Chromatographic separation was performed using a Welch Boltimate column (2.1 mm × 100 mm, 2.7 μm) maintained at 40°C. The mobile phase was composed of water containing 0.1% formic acid (phase A) and acetonitrile (phase B). The flow rate was held constant at 0.3 mL/min. The gradient elution protocol was as follows: 0–2.5 min, 60% B; 2.5–3.5 min, 60%–90% B; 3.5–5.5 min, 90% B; 5.5–5.6 min, 90%–60% B; 5.6–6.6 min, 60% B. The injection volume was 1 μL.
Pharmacokinetic parameters were calculated based on a non-compartmental model using DAS 2.1.1 Software (Mathematical Pharmacology Professional Committee of China, Shanghai, China). The area under the concentration–time curve (AUC), maximum plasma concentration (Cmax), time to maximum plasma concentration (Tmax), the time required to eliminate half of the plasma drug concentration (t1/2), clearance of drug plasma volume per unit time (CLz/F), apparent volume distribution (Vz/F), mean residence time (MRT) and the absorption rate constant (Ka) are all expressed as mean ± standard deviation (SD). SPSS 25.0 statistical software (SPSS Inc., Chicago, IL, United States) was applied to statistically analyze the mainpharmacokinetic parameters. Shapiro-Wilk test was used to assess whether the data were normally distributed, t test was used for parameters conforming to the normal distribution, and Mann-Whitney U test was used for parameters not conforming to the normal distribution. Statistical comparisons were conducted using a analysis of variance, t-test or nonparametric rank-sum test depending on the data type. A P-value <0.05 was deemed statistically significant.

[3] = RIVA 1 mg/kg + multiple doses of RIBO vs RIVA 2 mg/kg alone
[4] = RIVA 2 mg/kg (normal dose) + multiple doses of RIBO vs alone
[5] = RIVA 2 mg/kg + timed RIBO (12 h), RIBO 60 mg/kg for 8 days
[6] = RIVA 2 mg/kg after multiple doses of RIBO vs RIVA 2 mg/kg alone
[7] = RIVA 2 mg/kg with 12-h interval to RIBO vs RIVA 2 mg/kg alone
[8] = Sprague-Dawley, rat, plasma, po, 1 mg/kg, RIVA 1 mg/kg + RIBO 60 mg/kg for 8 days
[9] = Sprague-Dawley, rat, plasma, po, 2 mg/kg, RIVA 2 mg/kg + RIBO 60 mg/kg for 8 days
[10] = Sprague-Dawley, rat, plasma, po, 2 mg/kg, RIVA 2 mg/kg + timed RIBO (12 h), RIBO 60 mg/kg for 8 days
[11] = Sprague-Dawley, rat, plasma, po, 2 mg/kg, oral RIVA 2 mg/kg alone

CN(C)C(=O)c1cc2cnc(Nc3ccc(N4CCNCC4)cn3)nc2n1C1CCCC1 [RIBO, ribociclib]
reduction of AUC ([1]; with rifampicin, a strong CYP3A inducer): 89%
increase of AUC ([1]; with ritonavir, a strong CYP3A inhibitor): 3.2 fold

O=C(NC[C@H]1CN(c2ccc(N3CCOCC3=O)cc2)C(=O)O1)c1ccc(Cl)s1 [RIVA, rivaroxaban]
decrease of CLz/F [2, 3]: 70.97%
decrease of Vz/F [2, 3]: 78.29%
difference in MRT0- ∞ [2, 3]: not statistically significant
difference in Tmax [2, 3]: not statistically significant
increase of AUC0- ∞ [2, 3]: 228.46%
increase of AUC0-t [2, 3]: 230.62%
increase of Cmax [2, 3]: 133.14%
increase of MRT0-t [2, 3]: 30.06%
increase of AUC0- ∞ [2, 4]: ~2.1 fold
increase of AUC0-t (AUC) [2, 4]: about 2.4 fold
increase of Cmax [2, 4]: 1.9 fold
Cmax ([2]; RIVA 2 mg/kg + RIBO 60 mg/kg for 8 days): 838.33 ± 480.92 ng/mL
AUC0- ∞ [2, 5]: 2,217.15 ± 800.81 μg/L*h
Cmax [2, 5]: 454.5 ± 214.88 ng/mL
Vz/F [2, 5]: 3.72 ± 1.98 L/kg
t1/2 [2, 5]: 2.65 ± 1.48 h
decrease of CLz/F [2, 6]: 65.81%
decrease of Vz/F [2, 6]: 82.91%
decrease of t1/2z [2, 6]: 57.09%
difference in MRT0- ∞ [2, 6]: not statistically significant
difference in Tmax [2, 6]: not statistically significant
increase of AUC0- ∞ [2, 6]: 213.79%
increase of AUC0-t [2, 6]: 240.19%
increase of Cmax [2, 6]: 186.93%
increase of MRT0-t [2, 6]: 21.39%
decrease of CLz/F [2, 7]: 34.84%
decrease of Vz/F [2, 7]: 62.61%
difference in Cmax [2, 7]: not statistically significant
difference in MRT0- ∞ [2, 7]: not statistically significant
difference in Tmax [2, 7]: not statistically significant
increase of AUC0- ∞ [2, 7]: 63.03%
increase of AUC0-t [2, 7]: 74.16%
increase of MRT0-t [2, 7]: 22.54%
Cmax ([2]; Sprague-Dawley, rat, plasma, oral RIVA 2 mg/kg alone, read-out: Cmax): 292 ± 67.5 ng/mL
AUC(0-inf) [2, 8]: 4470 ng·h/mL
AUC(0-t) [2, 8]: 3990 ± 445 ng·h/mL
Tmax [2, 8]: 1.92 ± 0.2 h
half-life [2, 8]: 3.34 ± 0.79 h
CL/F [2, 8]: 7.5 mL/min/kg
MRT inf [2, 8]: 5.84 ± 0.81 h
MRT last [2, 8]: 4.5 ± 0.25 h
Vd/F [2, 8]: 2.16 ± 0.04 L/kg
AUC(0-inf) [2, 9]: 4270 ng·h/mL
AUC(0-t) [2, 9]: 4100 ng·h/mL
Tmax [2, 9]: 2.83 ± 0.41 h
half-life [2, 9]: 2.15 ± 0.94 h
CL/F [2, 9]: 8.83 mL/min/kg
MRT inf [2, 9]: 4.74 ± 0.63 h
MRT last [2, 9]: 4.2 ± 0.63 h
Vd/F [2, 9]: 1.7 ± 0.99 L/kg
AUC(0-t) [2, 10]: 2100 ng·h/mL
Tmax [2, 10]: 3 ± 0.63 h
CL/F [2, 10]: 16.8 mL/min/kg
MRT inf [2, 10]: 4.93 ± 1.3 h
MRT last [2, 10]: 4.24 ± 0.69 h
AUC(0-inf) [2, 11]: 1360 ng·h/mL
AUC(0-t) [2, 11]: 1210 ng·h/mL
Tmax [2, 11]: 2.13 ± 0.83 h
half-life [2, 11]: 5.01 ± 3.3 h
CL/F [2, 11]: 25.8 mL/min/kg
MRT last [2, 11]: 3.46 ± 0.43 h
Vd/F [2, 11]: 9.95 ± 4.58 L/kg
Cmax ([2]; Sprague-Dawley, rat, plasma, po, RIVA 1 mg/kg + RIBO 60 mg/kg for 8 days, read-out: Cmax): 681 ± 75.5 ng/mL
AUC at 1 mg/kg versus AUC at 2 mg/kg ([2]; both with multiple doses of RIBO): not significantly different
MRT0- ∞ ([2]; oral RIVA 2 mg/kg alone): 5.31 ± 2.01 h
increase of Cmax ([2]; reduced RIVA 1 mg/kg + multiple doses of RIBO): 1.3 fold
